Test results taken from patent publication US20060088583A1, “Artificial oxygen carrier containing preventive agents of metHb formation” (Oxygenix Co., Ltd., priority 2004, published 2006).

Tests used:
[1] = target: T1, hemoglobin vesicle (methemoglobin formation) (Homo sapiens, UniProt P68871+P69905); test: Autoxidation of hemoglobin vesicle in the atmospheric air (37° C.), rate of methemoglobin from absorbance ratio 405/430 nm; assay type: biochemical; settings: for Time required for 50% metHb formation: control 34.0; for Initial rate of metHb formation: control 1.3; for effect to inhibit methemoglobin formation (FIG. 1): encapsulated in hemoglobin vesicle, same manner as Example 1
T1 construct: obtained by purification of human red cells derived from the donated blood; from tissue; host or cells: human red cells from donated blood
T1 sequence (P69905 2-142 limits assumed): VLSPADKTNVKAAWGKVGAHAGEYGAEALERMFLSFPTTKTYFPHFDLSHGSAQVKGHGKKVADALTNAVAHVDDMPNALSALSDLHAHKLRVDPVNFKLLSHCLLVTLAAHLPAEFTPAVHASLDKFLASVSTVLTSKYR
T1 sequence (P68871 2-147 limits assumed): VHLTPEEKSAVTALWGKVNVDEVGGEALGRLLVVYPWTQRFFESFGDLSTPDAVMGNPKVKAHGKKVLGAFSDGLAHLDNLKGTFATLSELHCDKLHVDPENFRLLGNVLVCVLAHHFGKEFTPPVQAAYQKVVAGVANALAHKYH
Description: Otherwise, such components were not added to the above hemoglobin solution. Thereafter, using Remolino™ (manufactured by Millipore Japan), each of the obtained mixtures was filtrated through an FM microfilter with a pore size of 0.22 μm (manufactured by Fuji Photo Film Co., Ltd.), so as to obtain a processed hemoglobin solution. Mixed lipid powders (a mixture consisting of phosphatidylcholine, cholesterol, and DPEA; manufactured by Nippon Fine Chemical) were added, little by little, to the hemoglobin solution, resulting in the concentration of lipid of 4.5 wt %. The mixture was then stirred at 4° C. for 12 hours, so as to obtain a multilayer vesicle, in which hemoglobin had been encapsulated. The particle diameter and the number of coating layers were regulated by the extrusion method using Remolino. The FM microfilters were used in the order of pore sizes of 3, 0.8, 0.65, 0.45, 0.3, and 0.22 μm. The obtained hemoglobin vesicle dispersion was diluted with a saline solution. The diluted solution was subjected to ultracentrifugation (50,000 g, 40 minutes), and the supernatant hemoglobin solution was then eliminated by aspiration. Thereafter, a polyoxyethylene-binding lipid [N-(monomethoxy polyethylene glycol-carbamyl)distearoyl phosphatidyl ethanolamine; the molecular weight of the polyethylene glycol chain: 5,300] dispersed in a saline solution was added thereto, at an amount corresponding to 0.3 mol % of the lipid on the outer surface of the vesicle. The mixture was stirred at 25° C. for 2 hours, so as to modify the surface of the hemoglobin vesicle with polyethylene glycol. The concentration of hemoglobin was set at 10 g/dL, and the mixed solution was then filtrated through a 0.45-μm filter (Dismic-25; […]), so as to obtain a polyethylene glycol-modified hemoglobin vesicle.
Each sample was collected over time. Thereafter, the rate of methemoglobin was calculated from the ratio of the absorbance of the hemoglobin vesicle solution at 405 nm to that of at 430 nm.
A hemoglobin vesicle dispersion containing each of a tyrosine derivative, various types of antioxidants, and various types of phenol derivatives, at certain concentrations, was produced. Thereafter, the rate of methemoglobin formation was measured in the same manner as in Example 1.
Thereafter, the rate of 50% methemoglobin formation was measured in the same manner as in Example 1.
Thereafter, the time required for 50% methemoglobin formation was measured in the same manner as in Example 1.

[2] = target: T1, hemoglobin vesicle (methemoglobin formation); test: Autoxidation of hemoglobin vesicle in the atmospheric air (4° C.), chilled storage; assay type: biochemical; settings: [L-tyrosine]=1 mM
Description: As a result, a slight amount of dityrosine was confirmed. Thereafter, this experiment was performed on a mixture obtained by adding hydrogen peroxide to a methemoglobin solution containing L-tyrosine. As a result, a large amount of dityrosine was confirmed. This is because of the peroxidase activity of methemoglobin. Thereafter, the change in methemoglobin concentration was observed during chilled storage (4° C.).
Each sample was collected over time. Thereafter, the rate of methemoglobin was calculated from the absorbance ratio. […] 1 month later, the rate of methemoglobin were 4.4% and 9.3%, respectively. 3 months later, they were 10.2% and 24.3%, respectively.

[3] = target: hemoglobin solution in an oxy state (methemoglobin formation) (Homo sapiens, UniProt P68871+P69905); test: Repeated addition of hydrogen peroxide to oxyhemoglobin solution, cyanomethemoglobin method; assay type: biochemical; settings: 60 minutes; 310 μM hydrogen peroxide every 10 minutes, 37° C., air; 5 g/dL oxyhemoglobin; 0.5 wt % methemoglobin and/or 1 mM L-tyrosine
Chain of hemoglobin solution in an oxy state (methemoglobin formation) (P69905 2-142 limits assumed): as the sequence (P69905 2-142 limits assumed) above
Chain of hemoglobin solution in an oxy state (methemoglobin formation) (P68871 2-147 limits assumed): as the sequence (P68871 2-147 limits assumed) above
Description: Thereafter, 310 μM hydrogen peroxide (the same concentration as that of heme in methemoglobin) was added to the above solution, every 10 minutes, for 60 minutes in the atmospheric air at 37° C., while stirring. 300 μl of a sample was collected immediately before addition of each hydrogen peroxide, and 20 μl of catalase (5,000 units) was promptly added to each sample, so as to eliminate the hydrogen peroxide. Thereafter, the rate of methemoglobin was calculated by the cyanomethemoglobin method.

[4] = target: T2, hemoglobin (Homo sapiens, UniProt P68871+P69905); test: Isothermal titration microcalorimetry of L-tyrosine with hemoglobin; assay type: binding
T2 sequence (P69905 2-142 limits assumed): as the sequence (P69905 2-142 limits assumed) above
T2 sequence (P68871 2-147 limits assumed): as the sequence (P68871 2-147 limits assumed) above

[5] = target: T2, hemoglobin; test: Oxygen dissociation curve of hemoglobin mixed with L-tyrosine; assay type: biochemical
[6] = Maximum dissolvable concentration of L-tyrosine; assay type: physicochemical

Row | Compound | Time required for 50% metHb formation ([1]; Table 1, concentration 0.1 mM) [h] | Time required for 50% metHb formation ([1]; Table 1, concentration 1 mM) [h] | Time required for 50% metHb formation ([1]; Table 1, concentration 3 mM) [h] | Initial rate of metHb formation ([1]; concentration 0.1 mM) [% hr] | Initial rate of metHb formation ([1]; concentration 1 mM) [% hr] | Initial rate of metHb formation ([1]; concentration 3 mM) [% hr] | other results
1 | 3,4-dihydroxyphenol-L-alanine | 30.8 | 14.4 | 8.2 | 1.4 | 3.4 | 5.3 | –
2 | O=C(O)CCc1ccc(O)cc1 [3-(p-hydroxyphenyl)pronionic acid, 3-(p-hydroxy-phenyl)pronionic acid] | – | 32.2 | 34.2 | – | 1.0 | 1.2 | Time required for 50% metHb formation ([1]; Table 1, concentration not given): 34.7 h; Initial rate of metHb formation ([1]; concentration not given): 0.9 % hr
3 | O=c1cc(-c2ccc(O)cc2)oc2cc(O)cc(O)c12 [Apigenin] | 34.8 | 35.6 | – | 1.6 | 1.4 | – | –
4 | N[C@H](Cc1ccc(O)cc1)C(=O)O [D-tyrosine] | – | – | – | – | – | – | effect to inhibit methemoglobin formation (FIG. 1) [1]: does not have such an effect of inhibiting methemoglobin formation
5 | O=C(O[C@@H]1Cc2c(O)cc(O)cc2O[C@@H]1c1cc(O)c(O)c(O)c1)c1cc(O)c(O)c(O)c1 [Epigallocatechin gallate] | – | 12.4 | 13.0 | – | 3.4 | 3.2 | Time required for 50% metHb formation ([1]; Table 1, concentration 2 mM): 13.6 h; Initial rate of metHb formation ([1]; concentration 2 mM): 3.2 % hr
6 | O=c1c(O)c(-c2ccc(O)cc2)oc2cc(O)cc(O)c12 [Kaempferol] | – | 25.0 | – | – | 3.1 | – | –
7 | N[C@@H](Cc1ccc(O)cc1)C(=O)O [L-tyrosine] | – | 52.0 | – | – | 0.9 | – | Time required for 50% metHb formation ([1]; Table 1, concentration 0.25 mM): 42.0 h; Time required for 50% metHb formation ([1]; Table 1, concentration 0.5 mM): 48.0 h; Time required for 50% metHb formation ([1]; Table 2, concentration 0.25 mM): 42.0 h; Initial rate of metHb formation ([1]; concentration 0.25 mM): 1.1 % hr; Initial rate of metHb formation ([1]; concentration 0.5 mM): 1.0 % hr; effect to inhibit methemoglobin formation (FIG. 1) [1]: inhibits methemoglobin formation; rate of methemoglobin ([2]; 4° C., 1 month later, no L-tyrosine: 9.3%): 4.4%; rate of methemoglobin ([2]; 4° C., 3 months later, no L-tyrosine: 24.3%): 10.2%; rate of methemoglobin ([2]; when prepared, no L-tyrosine: 3.0%): 3.0%; rate of methemoglobin [3]: approximately 80%; heat of binding with hemoglobin [4]: almost no heat of binding was observed; change in the degree of oxygen affinity [5]: no change in the degree of oxygen affinity was observed; influence upon the allosteric effect [5]: no particular influence upon the allosteric effect was found; maximum concentration that can be dissolved [6]: approximately 20 mM
8 | Oc1ccccc1 [Phenol] | 35.6 | 33.2 | – | 1.1 | 1.3 | – | –
9 | O=C(O)Cc1ccc(O)cc1 [p-hydroxyphenyl acetic acid] | 30.6 | 30.2 | 28.3 | 1.5 | 1.7 | 1.8 | –
10 | Catalase | – | – | – | – | – | – | Time required for 50% metHb formation ([1]; Table 2, concentration 50000 unit/mL): 45.0 h
11 | L-Tyr-L-Glu | – | – | – | – | – | – | Time required for 50% metHb formation ([1]; Table 2, concentration 0.1 mM): 33.0 h; Time required for 50% metHb formation ([1]; Table 2, concentration 0.25 mM): 33.0 h
12 | L-Tyr-L-Tyr | – | – | – | – | – | – | Time required for 50% metHb formation ([1]; Table 2, concentration 0.1 mM): 32.0 h; Time required for 50% metHb formation ([1]; Table 2, concentration 0.25 mM): 32.0 h
